Laboratory results taken from patent US20230313311A1, “METHOD OF ASSESSING THE CIRCADIAN RHYTHM OF A SUBJECT HAVING CANCER AND/OR ASSESSING A TIMING OF ADMINISTRATION OF A MEDICAMENT TO SAID SUBJECT HAVING CANCER” (priority 2020, published 2023).

Assays:
[1] = tested on: BMAL1-Promoter activity in HCT116, SW480 and SW620 colon cancer cells; test: BMAL1-Promoter activity, live-cell bioluminescence recording over five days; assay type: cell-based, human; settings: treated vs control, n=3
Protocol: Here, the three cell lines were treated with several anti-cancer drugs, including WZB117, Oxaliplatin and cisplatin, and the rhythmic promoter activity of BMAL1 was measured over several days (FIG. 13). […] More specifically, HCT116, SW480 and SW620 colon cancer cells were treated with Oxaliplatin, Cisplatin and WZB117. BMAL1-Promoter activity was measured using live-cell bioluminescence recording over five days. Shown is one representative plot for the control (black) and the treated (grey dashed) condition, n=3.
BMAL1-Promoter activity was measured using live-cell bioluminescence recording over five days. Shown is one representative plot for the control (black) and the treated (grey) condition, n=3.

[2] = tested on: core-clock downregulated (shBMAL1, shNR1D1 and shPER2) HCT116 cancer cell lines; test: Cell proliferation measured using confluence after time-dependent treatment; assay type: cell-based, human; settings: 10 μM; treated at 18 h, 21 h and 24 h after cell synchronization; confluence over five days; n=3
Protocol: FIG. 15 illustrates how cell proliferation for an exemplified for a human cancer cell type is affected by Cisplatin treatment in a time-dependent manner;
In addition to the BMAL1 rhythmicity data, preliminary data were obtained pointing towards the differential regulation of cancer cell proliferation based on the timing of drug administration. […] Cell proliferation was measured using confluence over five days. n=3.

mice = settings: among six mouse categories; treatment tolerability as output; cited from earlier work
[3] = tested on: SW480 colorectal cancer cells; settings: cited from earlier work; for effect of drug administration depending on time: control cells; for effect of drug administration depending on time after BMAL1 downregulation: core-clock gene BMAL1 downregulated
Panc1 cells = settings: cited from earlier work
AsPC1 cells = settings: SMAD4 deficient AsPC1; treated 17 h, 20 h, 23 h after synchronization; cited from earlier work

| Structure (SMILES) | effect of drug application on rhythmicity of BMAL1 promoter activity [1] | effect of drug administration depending on time [3] | effect of drug administration depending on time after BMAL1 downregulation [3] | other results |
| --- | --- | --- | --- | --- |
| N.N.[Cl][Pt][Cl] [Cisplatin] | altered the rhythmicity of the core-clock gene BMAL1 | – | – | cell proliferation depending on timing of drug administration [2]: reduced cell proliferation for shNR1D1 and shPER2 cells, when cells were treated at 24 h after synchronization compared to the other time-points |
| CCc1c2c(nc3ccc(OC(=O)N4CCC(N5CCCCC5)CC4)cc13)-c1cc3c(c(=O)n1C2)COC(=O)[C@]3(O)CC [Irinotecan] | alters BMAL1 rhythmic promoter activity | – | – | variation of optimal circadian timing along the 24 hours (mice): up to 8 hour |
| O=C(Oc1cccc(F)c1OC(=O)c1cccc(O)c1)c1cccc(O)c1 [WZB117] | altered the rhythmicity of the core-clock gene BMAL1 | time-dependent | this effect is lost | – |
| O=C1[O][Pt]2([NH][C@@H]3CCCC[C@H]3[NH]2)[O]C1=O [Oxaliplatin] | altered the rhythmicity of the core-clock gene BMAL1 | time-dependent | this effect is lost | – |
| Nc1ccn([C@@H]2O[C@H](CO)[C@@H](O)C2(F)F)c(=O)n1 [gemcitabine] | – | – | – | differential drug response to different treatment time points after gene downregulation (Panc1 cells; Panc1 with downregulation of NR1D1 or SMAD4): the differential drug response to different treatment time points is impaired; response to time-dependent treatment (Panc1 cells; SMAD4 proficient Panc1, treated 17 h, 20 h, 23 h after synchronization): more resistant to treatment; response to time-dependent treatment (AsPC1 cells): this effect is not observed |
